Source: patent US20130014428A1, “METHODS OF MONITORING AND CONTROLLING THE WALNUT TWIG BEETLE, PITYOPHTHORUS JUGLANDIS” (The United States of America as Represented by the …, priority 2011, published 2013)

Legend:
[1] = system: WTB; assay: Two release rate (pouch vs. bottle) experiment, 4-unit Lindgren funnel traps; format: in vivo, Pityophthorus juglandis; details: for trap catches, female WTB / trap catches, male WTB: N=40
Protocol: Field Testing of Various Release Rates of 3-methyl-2-buten-1-ol. The flight response of WTB to two release rates of 3-methyl-2-buten-1-ol was tested at the Wolfskill Experimental Orchards (the Juglans collection of the USDA ARS National Clonal Germplasm Repository in Winters, Solano Co., Calif.) in late spring. The two release rates were: 1) 15-80 mg/d (depending on temperature, as per manufacturer's data), delivered from a commercially available LDPE plastic pouch (Product #300000736, RD-1039, Contech Enterprises Inc., Delta, BC, Canada); and 2) 5 mg/d (based on laboratory assessments at 25° C. and 30° C.), delivered from a 15 ml polyethylene bottle charged with 15 ml of 3-methyl-2-buten-1-ol [≧98% chemical purity, product #W364703, SAFC (=Sigma-Aldrich), St. Louis Mo.]. The pouch or bottle was suspended in the middle of a 4-unit Lindgren funnel trap (Contech), attached to the funnel strut so it rested on the inside surface of the third funnel (counted from the trap top), without blocking the central axis/interior hole of the trap. The trap cup was filled with propylene glycol-based recreational vehicle/marine antifreeze to a depth of about 2.5 to 5 cm, and the traps were hung from poles at a height of approximately 3 m. (See Seybold, S. J., Dallara, P. L., Hishinuma, S. M., and Flint, M. L. Detecting and Identifying the Walnut Twig Beetle: Monitoring Guidelines for the Invasive Vector of Thousand Cankers Disease of Walnut, University of California Agriculture and Natural Resources, Statewide Integrated Pest Management Program, 11 pp., Apr. 30, 2012). The two treatments were replicated in four spatial blocks and the treatments were re-randomized between the two trap stations in a block each time the traps were emptied (nearly every day).
Statistical Analyses. Analysis of treatment effects for the pouch vs. bottle experiment was done by using a sign test. (See Zar, J. H. 2010. Biostatistical Analysis. 5th ed. Pearson Prentice Hall, Englewood Cliffs, N.J.) The other four experiments were analyzed for treatment effect by using Friedman's non-parametric analysis of variance. Id. In all experiments, males and females were analyzed separately. All treatments within experiments yielding a significant treatment effect were compared by using an a posteriori Nemenyi test with experimentwise α=0.05. Id. For all experiments, differences among proportions of female WTB responding to treatments were analyzed by comparing 95% confidence intervals determined with the Clopper-Pearson method. Id.

[2] = system: WTB; assay: Trap type: four Lindgren funnel traps and intercept panel trap baited with X; format: in vivo, Pityophthorus juglandis; details: for trap catches, female WTB / trap catches, male WTB: 15-80 mg/d
Protocol: In another set of experiments, the flight response of WTB to four types of Lindgren funnel traps (Contech) and an intercept panel trap (Alpha Scents Inc., Portland Oreg., product # AST0031) was tested at Wolfskill Experimental Orchards in mid-summer. Each trap was baited with the commercial formulation of 3-methyl-2-buten-1-ol (15-80 mg/d, Contech) hung inside the middle funnel of each funnel trap or in a recess in the middle of the cross vane panels of the panel trap. Each trap cup was filled with propylene glycol as described above and the traps were suspended from the top of a 3 m metal conduit pole. Three blocks of traps were installed and trap catches were collected daily when the flight activity was high. The five treatments were re-randomized among the five trap stations within each of the three blocks each time that the traps were emptied.
Statistical Analyses. Analyses of treatment effects for the tests of trap type were performed by using Friedman's non-parametric analysis of variance or a sign test, depending on the number of treatments. (See Zar, J. H. 2010. Biostatistical Analysis. 5th ed. Pearson Prentice Hall, Englewood Cliffs, N.J.) Analysis of treatment effects for the Rain•X experiment was performed by using a Wilcoxon paired sample test. Id. Multiple comparisons for experiments with more than two treatments were performed with an a posteriori Nemenyi test with experimentwise α=0.05. Id. In all cases, male and female WTB were analyzed separately. Proportions of female WTB responding to treatments were calculated and 95% confidence intervals determined by using the Clopper-Pearson method. Id.

[3] = release rate 5 mg/d (bottle with 15 ml load)
[4] = release rate 15-80 mg/d (pouch)

## CC(C)=CCO [X, 3-methyl-2-buten-1-ol]
[1]; higher release rate (15-80 mg/d)
  proportion of females responding: 0.71
[1]; lower release rate (5 mg/d)
  proportion of females responding: 0.63
[1]; [3]
  trap catches, female WTB: 3072
  trap catches, male WTB: 1828
[1]; [4]
  trap catches, female WTB: 3085
  trap catches, male WTB: 1284
[1]; two-sided sign test, pouch vs bottle
  difference between release rate treatments: male response was greater for the lower release rate plastic bottle treatment
[2]; 4-unit Lindgren funnel trap
  trap catches, female WTB: 231
  trap catches, male WTB: 72
[2]; 4-unit trap
  proportion of females responding: 0.76
[2]; 8-unit trap
  proportion of females responding: 0.76
  trap catches, female WTB: 634
  trap catches, male WTB: 202
[2]; 12-unit trap
  proportion of females responding: 0.72
  trap catches, female WTB: 892
  trap catches, male WTB: 352
[2]; 16-unit trap
  proportion of females responding: 0.73
  trap catches, female WTB: 618
  trap catches, male WTB: 233
[2]; intercept panel trap
  trap catches, female WTB: 296
  trap catches, male WTB: 128
[2]; panel trap
  proportion of females responding: 0.70
